Experimental data taken from ChEMBL document CHEMBL1629592, “Real-time monitoring of human enterovirus (HEV)-infected cells and anti-HEV 3C protease potency by fluorescence resonance energy transfer” (Antimicrob Agents Chemother, 2009).

Legend:
Format in all cases: functional, organism-based
Enterovirus [1] = test: Antiviral activity against Human enterovirus CVA16 infected in Vero cells after 4 to 7 days by plaque reduction assay
Enterovirus [2] = test: Antiviral activity against Human enterovirus CVB1 infected in Vero cells after 4 to 7 days by plaque reduction assay
Enterovirus [3] = test: Antiviral activity against Human enterovirus CVB2 infected in Vero cells after 4 to 7 days by plaque reduction assay
Enterovirus [4] = test: Antiviral activity against Human enterovirus CVB4 infected in Vero cells after 4 to 7 days by plaque reduction assay
Enterovirus [5] = test: Antiviral activity against Human enterovirus Echo9 infected in Vero cells after 4 to 7 days by plaque reduction assay
Enterovirus [6] = test: Antiviral activity against Human enterovirus EV71 infected in human HeLa cells after 2 to 4 days by formazan dye reduction assay
Enterovirus [7] = test: Antiviral activity against Human enterovirus CVA16 infected in human HeLa cells after 2 to 4 days by formazan dye reduction assay
Enterovirus [8] = test: Antiviral activity against Human enterovirus CVB1 infected in human HeLa cells after 2 to 4 days by formazan dye reduction assay
Enterovirus [9] = test: Antiviral activity against Human enterovirus CVB2 infected in human HeLa cells after 2 to 4 days by formazan dye reduction assay
Enterovirus [10] = test: Antiviral activity against Human enterovirus CVB4 infected in human HeLa cells after 2 to 4 days by formazan dye reduction assay
Enterovirus [11] = test: Antiviral activity against Human enterovirus Echo9 infected in human HeLa cells after 2 to 4 days by formazan dye reduction assay
Enterovirus [12] = test: Antiviral activity against Human enterovirus EV71 infected in Vero cells after 4 to 7 days by plaque reduction assay
Enterovirus [13] = test: Antiviral activity against Human enterovirus EV71 infected in human HeLa-G3CwtR cells after 36 to 48 hrs by FRET assay
Enterovirus [14] = test: Antiviral activity against Human enterovirus CVA16 infected in human HeLa-G3CwtR cells after 36 to 48 hrs by FRET assay
Enterovirus [15] = test: Antiviral activity against Human enterovirus CVB1 infected in human HeLa-G3CwtR cells after 36 to 48 hrs by FRET assay
Enterovirus [16] = test: Antiviral activity against Human enterovirus CVB2 infected in human HeLa-G3CwtR cells after 36 to 48 hrs by FRET assay
Enterovirus [17] = test: Antiviral activity against Human enterovirus CVB4 infected in human HeLa-G3CwtR cells after 36 to 48 hrs by FRET assay
Enterovirus [18] = test: Antiviral activity against Human enterovirus Echo9 infected in human HeLa-G3CwtR cells after 36 to 48 hrs by FRET assay

## CCOC(=O)/C=C/[C@H](C[C@@H]1CCNC1=O)NC(=O)[C@@H](CC(=O)[C@@H](NC(=O)c1cc(C)on1)C(C)C)Cc1ccc(F)cc1 [RUPINTRIVIR]
Enterovirus [1]
  EC50: 0.419 µM
Enterovirus [2]
  EC50: 1.73 µM
Enterovirus [3]
  EC50: 0.982 µM
Enterovirus [4]
  EC50: 0.843 µM
Enterovirus [5]
  EC50: 0.481 µM
Enterovirus [6]
  EC50: 0.561 µM
Enterovirus [7]
  EC50: 0.27 µM
Enterovirus [8]
  EC50: 1.25 µM
Enterovirus [9]
  EC50: 0.783 µM
Enterovirus [10]
  EC50: 0.372 µM
Enterovirus [11]
  EC50: 0.36 µM
Enterovirus [12]
  EC50: 0.791 µM
Enterovirus [13]
  EC50: 0.781 µM
Enterovirus [14]
  EC50: 0.331 µM
Enterovirus [15]
  EC50: 1.64 µM
Enterovirus [16]
  EC50: 0.857 µM
Enterovirus [17]
  EC50: 0.877 µM
Enterovirus [18]
  EC50: 0.434 µM
